Source: patent US9783505B2, “Substituted diaminopyrimidyl compounds, compositions thereof, and methods of treatment therewith” (Signal Pharmaceuticals, LLC, priority 2013, dated 2017)

Tests used:
His-PKC-theta = target: T1, His-PKC-theta (Homo sapiens, UniProt Q04759); assay: PKC-theta Assay (384-well time resolved fluorescence, IMAP TR-FRET); type: biochemical; conditions: read-out: Act. Level (IC50 in the PKC-theta Assay)
T1 construct: His; purchased Invitrogen
Method in brief: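 Fam-labeled S6-derived peptide (200 nM) and 10 μM ATP were reacted with 142 pM enzyme for 2 h at room temperature in HEPES pH 7.6 buffer with MgCl2, DTT, Triton X-100, BSA and EDTA. The reaction was stopped with IMAP progressive binding reagent plus Tb donor, incubated overnight, then TR-FRET read.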

PKC delta = target: T2, PKC delta (Homo sapiens, UniProt Q05655); assay: PKC delta Assay (384-well time resolved fluorescence, IMAP TR-FRET); type: biochemical; conditions: selectivity for PKC-theta over PKC-delta
T2 construct: purchased Invitrogen
T2 sequence (Q05655 whole entry): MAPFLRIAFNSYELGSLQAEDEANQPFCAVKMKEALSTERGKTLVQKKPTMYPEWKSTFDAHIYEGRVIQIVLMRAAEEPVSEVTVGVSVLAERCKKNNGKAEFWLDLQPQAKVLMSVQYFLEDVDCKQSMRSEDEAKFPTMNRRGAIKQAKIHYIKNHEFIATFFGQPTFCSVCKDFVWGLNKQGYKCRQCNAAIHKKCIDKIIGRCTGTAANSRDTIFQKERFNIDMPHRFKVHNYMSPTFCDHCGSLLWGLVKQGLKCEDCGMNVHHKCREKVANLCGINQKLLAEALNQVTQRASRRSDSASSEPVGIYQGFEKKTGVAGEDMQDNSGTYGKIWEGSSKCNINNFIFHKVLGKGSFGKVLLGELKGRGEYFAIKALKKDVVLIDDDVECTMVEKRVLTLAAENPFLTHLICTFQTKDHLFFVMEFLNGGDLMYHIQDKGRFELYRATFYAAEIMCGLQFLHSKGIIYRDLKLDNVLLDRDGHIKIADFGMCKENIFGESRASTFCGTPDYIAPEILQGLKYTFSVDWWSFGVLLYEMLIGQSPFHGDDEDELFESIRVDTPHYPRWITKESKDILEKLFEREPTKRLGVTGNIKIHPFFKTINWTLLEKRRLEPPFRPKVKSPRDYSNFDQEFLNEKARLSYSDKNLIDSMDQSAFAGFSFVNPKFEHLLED
Method: PKC delta Assay. A 384-well time resolved fluorescence assay was used to monitor PKC delta activity. The PKC delta assay was run in the following assay buffer: 50 mM HEPES pH 7.6, 10 mM MgCl2, 1 mM DTT, 0.01% Triton X-100, 0.01% BSA and 0.1 mM EDTA. To initiate the reaction, 200 nM of Fam-labeled S6-derived peptide (Molecular Devices) and 10 μM of ATP were mixed with 1.5 nM of PKC delta (Invitrogen), for a total assay volume of 25 μL in each well. The assay was incubated at room temperature for 2 hours and terminated using a 60 μL/well mixture of Detection Binding Solution: 70% IMAP Progressive Binding Buffer A, 30% IMAP Progressive Binding Buffer B, 1:600 Progressive Binding Reagent, and 1:400 TR-FRET Tb Donor (Molecular Devices). The assay plates were then incubated overnight at room temperature and read on the Perkin-Elmer Envision Reader.

T1 sequence (Q04759 whole entry): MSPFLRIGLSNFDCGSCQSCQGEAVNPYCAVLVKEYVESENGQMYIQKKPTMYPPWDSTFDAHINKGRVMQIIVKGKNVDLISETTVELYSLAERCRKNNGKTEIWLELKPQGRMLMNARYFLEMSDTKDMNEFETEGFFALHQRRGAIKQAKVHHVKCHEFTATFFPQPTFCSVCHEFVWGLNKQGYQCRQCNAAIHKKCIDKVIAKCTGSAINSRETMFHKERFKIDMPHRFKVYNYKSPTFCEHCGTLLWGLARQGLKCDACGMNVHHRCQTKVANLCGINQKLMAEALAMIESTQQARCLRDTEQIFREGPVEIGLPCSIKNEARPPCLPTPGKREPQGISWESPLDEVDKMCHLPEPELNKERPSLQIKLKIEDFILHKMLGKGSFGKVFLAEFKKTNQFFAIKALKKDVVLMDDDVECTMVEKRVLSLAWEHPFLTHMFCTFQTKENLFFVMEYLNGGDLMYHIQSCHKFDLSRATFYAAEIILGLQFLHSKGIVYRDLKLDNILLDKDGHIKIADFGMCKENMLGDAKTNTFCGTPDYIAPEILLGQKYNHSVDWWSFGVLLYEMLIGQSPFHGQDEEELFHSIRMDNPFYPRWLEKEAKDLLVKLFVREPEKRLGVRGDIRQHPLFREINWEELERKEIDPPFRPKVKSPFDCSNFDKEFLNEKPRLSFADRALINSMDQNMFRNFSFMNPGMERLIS

SMILES | IC50 (His-PKC-theta) [nM] | Sel. Level (ratio of IC50 PKC-delta/IC50 PKC-theta) (PKC delta)
CN(C)C(=O)[C@H]1C[C@@H](Nc2nc(NCCc3c[nH]c4ccccc34)ncc2C#N)C1 [Cmpd 288] | 100 to 800 | G (selectivity between 5- and 20-fold (selectivity level G))
CNC(=O)[C@H]1C[C@@H](Nc2nc(NCCc3c[nH]c4ccccc34)ncc2C#N)C1 [Cmpd 289] | 800 to 2000 | G (selectivity between 5- and 20-fold (selectivity level G))
N#Cc1cnc(NCCc2c[nH]c3ccccc23)nc1N[C@H]1C[C@@H](C(N)=O)C1 [Cmpd 290] | 100 to 800 | F (selectivity of between 20- and 100-fold (selectivity level F))
Cn1c(=O)n(CCNc2ncc(C#N)c(N[C@@H]3CC[C@H](O)C(C)(C)C3)n2)c2ccccc21 [Cmpd 291] | 2000 to 10000 | H (selectivity level of 5-fold or less (selectivity level H))
CN1C(=O)C(CCNc2ncc(C#N)c(N[C@@H]3CC[C@H](O)C(C)(C)C3)n2)c2ccccc21 (some centres unmarked) [Cmpd 300] | 800 to 2000 | G (selectivity between 5- and 20-fold (selectivity level G))
CC1(C)C[C@H](Nc2nc(NCC[C@]3(C)C(=O)Nc4ccccc43)ncc2C#N)CC[C@@H]1O [Cmpd 303] | 2000 to 10000 | H (selectivity level of 5-fold or less (selectivity level H))
CC1(C)C[C@H](Nc2nc(NCC[C@@]3(C)C(=O)Nc4ccccc43)ncc2C#N)CC[C@@H]1O [Cmpd 304] | 100 to 800 | F (selectivity of between 20- and 100-fold (selectivity level F))
CC1(C)[C@@H](Nc2nc(NCCC3C(=O)Nc4ccccc43)ncc2C#N)CCC[C@@H]1O (some centres unmarked) [Cmpd 305] | 100 to 800 | G (selectivity between 5- and 20-fold (selectivity level G))
CC1(C)[C@H](O)CCC[C@H]1Nc1nc(NCCC2C(=O)Nc3ccccc32)ncc1C#N (some centres unmarked) [Cmpd 306] | 100 to 800 | H (selectivity level of 5-fold or less (selectivity level H))
CC1(C)[C@H](O)CCC[C@@H]1Nc1nc(NCCC2C(=O)Nc3ccccc32)ncc1C#N (some centres unmarked) [Cmpd 307] | 100 to 800 | G (selectivity between 5- and 20-fold (selectivity level G))
CC1(C)[C@@H](O)CCC[C@H]1Nc1nc(NCCC2C(=O)Nc3ccccc32)ncc1C#N (some centres unmarked) [Cmpd 308] | 100 to 800 | H (selectivity level of 5-fold or less (selectivity level H))
CC1(C)[C@@H](Nc2nc(NCCC3C(=O)Nc4cc(F)ccc43)ncc2C#N)CCC[C@@H]1O (some centres unmarked) [Cmpd 309] | 800 to 2000 | G (selectivity between 5- and 20-fold (selectivity level G))
CC1(C)[C@H](O)CCC[C@H]1Nc1nc(NCCC2C(=O)Nc3cc(F)ccc32)ncc1C#N (some centres unmarked) [Cmpd 310] | 800 to 2000 | H (selectivity level of 5-fold or less (selectivity level H))
CC1(C)[C@H](O)CCC[C@@H]1Nc1nc(NCCC2C(=O)Nc3cc(F)ccc32)ncc1C#N (some centres unmarked) [Cmpd 311] | 100 to 800 | G (selectivity between 5- and 20-fold (selectivity level G))
CC1(C)[C@@H](O)CCC[C@H]1Nc1nc(NCCC2C(=O)Nc3cc(F)ccc32)ncc1C#N (some centres unmarked) [Cmpd 312] | 100 to 800 | G (selectivity between 5- and 20-fold (selectivity level G))
CC1(C)[C@@H](Nc2nc(NCCC3C(=O)Nc4ccc(F)cc43)ncc2C#N)CCC[C@@H]1O (some centres unmarked) [Cmpd 313] | 100 to 800 | F (selectivity of between 20- and 100-fold (selectivity level F))
CC1(C)[C@H](O)CCC[C@H]1Nc1nc(NCCC2C(=O)Nc3ccc(F)cc32)ncc1C#N (some centres unmarked) [Cmpd 314] | 100 to 800 | H (selectivity level of 5-fold or less (selectivity level H))
CC1(C)[C@H](O)CCC[C@@H]1Nc1nc(NCCC2C(=O)Nc3ccc(F)cc32)ncc1C#N (some centres unmarked) [Cmpd 315] | 100 to 800 | G (selectivity between 5- and 20-fold (selectivity level G))
CC1(C)[C@@H](O)CCC[C@H]1Nc1nc(NCCC2C(=O)Nc3ccc(F)cc32)ncc1C#N (some centres unmarked) [Cmpd 316] | < 100 | F (selectivity of between 20- and 100-fold (selectivity level F))
CC1(C)[C@@H](c2nc[nH]n2)C[C@H]1Nc1nc(NCCC2C(=O)Nc3ccccc32)ncc1C#N (some centres unmarked) [Cmpd 317] | < 100 | E (selectivity (Sel. Level=ratio of IC50 PKC-delta/IC50 PKC-theta) of >100-fold (selectivity level E))
CC1(C)[C@@H](C(N)=O)C[C@H]1Nc1nc(NCCC2C(=O)Nc3ccccc32)ncc1C#N (some centres unmarked) [Cmpd 318] | < 100 | E (selectivity (Sel. Level=ratio of IC50 PKC-delta/IC50 PKC-theta) of >100-fold (selectivity level E))
N#Cc1cnc(NCCc2c[nH]c3cnccc23)nc1N[C@H]1CC[C@@H](C(N)=O)CC1 [Cmpd 320] | 100 to 800 | F (selectivity of between 20- and 100-fold (selectivity level F))
CCc1cccn1CCNc1ncc(C#N)c(N[C@H]2CC[C@@H](C(N)=O)CC2)n1 [Cmpd 323] | 100 to 800 | G (selectivity between 5- and 20-fold (selectivity level G))

Now from value to compound, other results behind:

IC50 (His-PKC-theta) [nM] | SMILES | Sel. Level (ratio of IC50 PKC-delta/IC50 PKC-theta) (PKC delta)
100 to 800 | CC1(C)C[C@H](Nc2nc(NCCc3c[nH]c4cnccc34)ncc2C#N)CC[C@@H]1O [Cmpd 283] | F (selectivity of between 20- and 100-fold (selectivity level F))
2000 to 10000 | CC1(C)C[C@H](Nc2nc(NCCc3c[nH]c4ccncc34)ncc2C#N)CC[C@@H]1O [Cmpd 284] | H (selectivity level of 5-fold or less (selectivity level H))
2000 to 10000 | CC(F)(F)COc1ncncc1CNc1ncc(C#N)c(N[C@H]2CCC[C@](C)(O)C2)n1 [Cmpd 285] | H (selectivity level of 5-fold or less (selectivity level H))
100 to 800 | CC(F)(F)COc1ncncc1CNc1ncc(C#N)c(N[C@@H]2CCC[C@@](C)(O)C2)n1 [Cmpd 286] | F (selectivity of between 20- and 100-fold (selectivity level F))
100 to 800 | CC(F)(F)COc1ncncc1CNc1ncc(C#N)c(N[C@H]2CCC[C@@](C)(O)C2)n1 [Cmpd 287] | F (selectivity of between 20- and 100-fold (selectivity level F))
< 100 | Cn1cc(CCNc2ncc(C#N)c(N[C@@H]3CC[C@H](O)C(C)(C)C3)n2)c2ccccc21 [Cmpd 292] | F (selectivity of between 20- and 100-fold (selectivity level F))
100 to 800 | CC(F)(F)COc1ncncc1CNc1ncc(C#N)c(N[C@H]2CC3(C2)C[C@](C)(O)C3)n1 (some centres unmarked) [Cmpd 294] | F (selectivity of between 20- and 100-fold (selectivity level F))
100 to 800 | CC(F)(F)COc1ncncc1CNc1ncc(C#N)c(N[C@H]2CC3(C2)C[C@](C)(O)C3)n1 (some centres unmarked) [Cmpd 295] | F (selectivity of between 20- and 100-fold (selectivity level F))
100 to 800 | CC(F)(F)COc1ncncc1CNc1ncc(C#N)c(N[C@H]2CCC[C@H](O)C2(C)C)n1 [Cmpd 296] | F (selectivity of between 20- and 100-fold (selectivity level F))
100 to 800 | CC(F)(F)COc1ncncc1CNc1ncc(C#N)c(N[C@@H]2CCC[C@@H](O)C2(C)C)n1 [Cmpd 297] | F (selectivity of between 20- and 100-fold (selectivity level F))
< 100 | CC(F)(F)COc1ncncc1CNc1ncc(C#N)c(N[C@H]2CCC[C@@H](O)C2(C)C)n1 [Cmpd 298] | E (selectivity (Sel. Level=ratio of IC50 PKC-delta/IC50 PKC-theta) of >100-fold (selectivity level E))
< 100 | CC(F)(F)COc1ncncc1CNc1ncc(C#N)c(N[C@@H]2CCC[C@H](O)C2(C)C)n1 [Cmpd 299] | E (selectivity (Sel. Level=ratio of IC50 PKC-delta/IC50 PKC-theta) of >100-fold (selectivity level E))
100 to 800 | C[C@]1(O)CC2(C[C@H](Nc3nc(NCCC4C(=O)Nc5ccccc54)ncc3C#N)C2)C1 (some centres unmarked) [Cmpd 301] | F (selectivity of between 20- and 100-fold (selectivity level F))
800 to 2000 | C[C@]1(O)CC2(C[C@H](Nc3nc(NCCC4C(=O)Nc5ccccc54)ncc3C#N)C2)C1 (some centres unmarked) [Cmpd 302] | G (selectivity between 5- and 20-fold (selectivity level G))
2000 to 10000 | Cc1cc(CCNc2ncc(C#N)c(N[C@H]3CC[C@@H](C(N)=O)CC3)n2)ncn1 [Cmpd 319] | H (selectivity level of 5-fold or less (selectivity level H))
2000 to 10000 | Cc1nccnc1CCNc1ncc(C#N)c(N[C@H]2CC[C@@H](C(N)=O)CC2)n1 [Cmpd 321] | H (selectivity level of 5-fold or less (selectivity level H))
100 to 800 | Cc1ncccc1CCNc1ncc(C#N)c(N[C@H]2CC[C@@H](C(N)=O)CC2)n1 [Cmpd 322] | G (selectivity between 5- and 20-fold (selectivity level G))
